In ChEMBL document CHEMBL3639375, “Œ=-lactamase inhibitors” (2013):

How the values were obtained:
[1] = target: Beta-lactamase (Pseudomonas aeruginosa, UniProt Q8RL90); test: (§1) Spectrophotometric Assay: Enzyme activities were measured in the presence of the test inhibitor in spectrophotometric assay.
[2] = target: Beta-lactamase (Klebsiella pneumoniae, UniProt Q93LQ9); test: as §1
Chain of Beta-lactamase (Klebsiella pneumoniae, UniProt Q93LQ9) (Q93LQ9 whole entry): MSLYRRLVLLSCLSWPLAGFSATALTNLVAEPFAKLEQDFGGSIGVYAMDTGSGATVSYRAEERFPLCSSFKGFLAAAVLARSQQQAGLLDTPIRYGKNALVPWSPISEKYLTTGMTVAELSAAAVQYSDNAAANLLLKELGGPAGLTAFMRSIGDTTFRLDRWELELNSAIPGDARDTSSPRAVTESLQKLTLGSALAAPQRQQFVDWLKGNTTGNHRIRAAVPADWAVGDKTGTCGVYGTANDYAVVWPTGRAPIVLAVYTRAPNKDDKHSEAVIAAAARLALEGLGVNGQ

Chain of Beta-lactamase (Pseudomonas aeruginosa, UniProt Q8RL90) (Q8RL90 whole entry): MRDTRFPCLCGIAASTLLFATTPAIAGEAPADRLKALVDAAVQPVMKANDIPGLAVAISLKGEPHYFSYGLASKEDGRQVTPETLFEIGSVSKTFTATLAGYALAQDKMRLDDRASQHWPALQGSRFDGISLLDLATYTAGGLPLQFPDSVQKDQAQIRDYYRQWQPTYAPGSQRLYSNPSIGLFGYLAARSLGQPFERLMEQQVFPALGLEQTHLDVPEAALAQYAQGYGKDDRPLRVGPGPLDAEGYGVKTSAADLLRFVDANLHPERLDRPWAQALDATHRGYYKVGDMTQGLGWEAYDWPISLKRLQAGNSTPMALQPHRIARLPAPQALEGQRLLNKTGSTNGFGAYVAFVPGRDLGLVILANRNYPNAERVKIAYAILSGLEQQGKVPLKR

Row | Compound | IC50 [1] | IC50 [2]
1 | O=C(Nc1ccncc1)[C@@H]1CCC2CN1C(=O)N2OS(=O)(=O)O (stereo partly drawn) | 6 nM | –
2 | O=C(Nc1ccc2c(c1)CCNC2)[C@@H]1CCC2CN1C(=O)N2OS(=O)(=O)O (stereo partly drawn) | – | 19 nM
3 | O=C(NC1CCCNCC1)[C@@H]1CCC2CN1C(=O)N2OS(=O)(=O)O (stereo partly drawn) | 69 nM | –
